Experimental data as given in patent US9447038B2 (SANOFI, priority 2012, dated 2016).

target: human CXCR3-A receptor (Homo sapiens (Human), UniProt P49682); test: 125I-CXCL10 competition radioligand binding assay; details: displacement of 125I-CXCL10 from membranes of CHO cells expressing human recombinant CXCR3-A;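 note: One-hour incubation of membranes with tracer, bound radioligand separated by glass fibre filtration, IC50 derived from four-parameter nonlinear fit of competition curves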
Sequence (P49682 whole entry): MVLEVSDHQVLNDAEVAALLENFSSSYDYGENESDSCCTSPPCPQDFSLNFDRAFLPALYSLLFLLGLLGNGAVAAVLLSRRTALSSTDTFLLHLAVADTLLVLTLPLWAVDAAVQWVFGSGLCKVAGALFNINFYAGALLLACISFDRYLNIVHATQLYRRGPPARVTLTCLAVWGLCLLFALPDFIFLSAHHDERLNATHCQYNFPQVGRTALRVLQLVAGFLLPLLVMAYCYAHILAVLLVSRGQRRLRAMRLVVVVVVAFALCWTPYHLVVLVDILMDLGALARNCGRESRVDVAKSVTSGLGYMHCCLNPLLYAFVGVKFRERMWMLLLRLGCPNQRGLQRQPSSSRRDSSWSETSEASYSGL

SMILES | IC50 [nM]
COc1cc(CN(CC2CCCCC2)C(CC(=O)O)c2ccc3c(c2)CCO3)ccc1OCCn1c(=O)ccn(C)c1=O (stereo not drawn) [Example 128, 3-(Cyclohexylmethyl-{3-methoxy-4-[2-(3-methyl-2,6-dioxo-3,6-dihydro-2H-pyrimidin-1-yl)-ethoxy]-benzyl}-amino)-3-(2,3-dihydro-benzofuran-5-yl)-propionic acid] | 118
CCCCN(Cc1ccc(OCCN2C(=O)CCC2=O)c(OC)c1)C(CC(=O)O)c1ccc(Cl)cc1Cl (stereo not drawn) [Example 150, 3-(Butyl-{4-[2-(2,5-dioxo-pyrrolidin-1-yl)-ethoxy]-3-methoxy-benzyl}-amino)-3-(2,4-dichloro-phenyl)-propionic acid] | 140
O=C(O)CC(c1ccc(Cl)cc1)N(Cc1ccc(OCCN2C(=O)CCC2=O)c(F)c1)CC1CCCCC1 (stereo not drawn) [Example 57, 3-(4-Chloro-phenyl)-3-(cyclohexylmethyl-{4-[2-(2,5-dioxo-pyrrolidin-1-yl)-ethoxy]-3-fluoro-benzyl}-amino)-propionic acid] | 212
COc1cc(CN(CC2CCCC2)C(CC(=O)O)c2ccc3c(c2)CCO3)ccc1OCCN1C(=O)CCC1=O (stereo not drawn) [Example 146, 3-(Cyclopentylmethyl-{4-[2-(2,5-dioxo-pyrrolidin-1-yl)-ethoxy]-3-methoxy-benzyl}-amino)-3-(2,3-dihydro-benzofuran-5-yl)-propionic acid] | 56
CCCN(Cc1ccc(OCCN2C(=O)CCC2=O)c(C)c1)C(CC(=O)O)c1ccc(Cl)c(Cl)c1 (stereo not drawn) [Example 79, 3-(3,4-Dichloro-phenyl)-3-({4-[2-(2,5-dioxo-pyrrolidin-1-yl)-ethoxy]-3-methyl-benzyl}-propyl-amino)-propionic acid] | 116
CCc1cc(CN(CC2CC2)C(CC(=O)O)c2ccc(Cl)cc2)ccc1OCCN1C(=O)CCC1=O (stereo not drawn) [Example 84, 3-(4-Chloro-phenyl)-3-(cyclopropylmethyl-{4-[2-(2,5-dioxo-pyrrolidin-1-yl)-ethoxy]-3-ethyl-benzyl}-amino)-propionic acid] | 45
CCCN(Cc1ccc(OCCn2c(=O)ccn(C)c2=O)c(OC)c1)C(CC(=O)O)c1ccc(Cl)cc1Cl (stereo not drawn) [Example 159, 3-(2,4-Dichloro-phenyl)-3-({3-methoxy-4-[2-(3-methyl-2,6-dioxo-3,6-dihydro-2H-pyrimidin-1-yl)-ethoxy]-benzyl}-propyl-amino)-propionic acid] | 354
COc1cc(CN(CC2CCCCC2)C2c3ccc(Cl)cc3CC2C(=O)O)ccc1OCCN1C(=O)CCC1=O (stereo not drawn) [Example 169, 5-Chloro-1-(cyclohexylmethyl-{4-[2-(2,5-dioxo-pyrrolidin-1-yl)-ethoxy]-3-methoxy-benzyl}-amino)-indan-2-carboxylic acid] | 407
Cc1cc(CN(CC2CCCC2)[C@@H](CC(=O)O)c2ccc(Cl)c(F)c2)ccc1OCCN1C(=O)CN(C)C1=O [Example 32, (S)-3-(4-Chloro-3-fluoro-phenyl)-3-(cyclopentylmethyl-{3-methyl-4-[2-(3-methyl-2,5-dioxo-imidazolidin-1-yl)-ethoxy]-benzyl}-amino)-propionic acid] | 69
CCCN(Cc1ccc(OCCN2C(=O)CCC2=O)c(OC)c1)C(CC(=O)O)c1ccc(Cl)c(Cl)c1 (stereo not drawn) [Example 46, 3-(3,4-Dichloro-phenyl)-3-({4-[2-(2,5-dioxo-pyrrolidin-1-yl)-ethoxy]-3-methoxy-benzyl}-propyl-amino)-propionic acid] | 118
Cc1cc(CN(CC2CCCCC2)[C@@H](CC(=O)O)c2ccc(Cl)c(F)c2)ccc1OCCN1C(=O)CN(C)C1=O [Example 34, (S)-3-(4-Chloro-3-fluoro-phenyl)-3-(cyclohexylmethyl-{3-methyl-4-[2-(3-methyl-2,5-dioxo-imidazolidin-1-yl)-ethoxy]-benzyl}-amino)-propionic acid] | 83
Cc1cc(CN(CCC(F)(F)F)C(CC(=O)O)c2ccc(Cl)c(Cl)c2)ccc1OCCN1C(=O)CCC1=O (stereo not drawn) [Example 167, 3-(3,4-Dichloro-phenyl)-3-[{4-[2-(2,5-dioxo-pyrrolidin-1-yl)-ethoxy]-3-methyl-benzyl}-(3,3,3-trifluoro-propyl)-amino]-propionic acid] | 2440
